This assay has as its system B6C3F1 mice, ip Sarcoma M5076, median survival T/C. Description: NCI In Vivo Anticancer Drug Screen. Data for tumor model Sarcoma M5076 (intraperitoneal) in B6C3F1 mice. Conditions: endpoint: median survival time, higher = longer survival. The protocol:
The antitumor activity of compounds was measured in mice bearing transplantable tumors. Survival or tumor size were measured and the results are expressed as the measurement made in the treated group (T) divided by the measurement made in the vehicle treated control group (C). The tumor model used in this assay is Sarcoma M5076 (intraperitoneal) in B6C3F1 mice

[1] abbreviates: dose: 50.0 mg/kg/injection, schedule: Q04DX004 (ip), vehicle: Klucel (hydroxypropylcellulose) (HPC).
[2] abbreviates: dose: 100.0 mg/kg/injection, schedule: Q04DX004 (ip), vehicle: Klucel (hydroxypropylcellulose) (HPC).
[3] abbreviates: dose: 200.0 mg/kg/injection, schedule: Q04DX004 (ip), vehicle: Klucel (hydroxypropylcellulose) (HPC).
The mark [4] stands for this setting: dose: 400.0 mg/kg/injection, schedule: Q04DX004 (ip), vehicle: Klucel (hydroxypropylcellulose) (HPC).
Setting [5] is: dose: 800.0 mg/kg/injection, schedule: Q04DX004 (ip), vehicle: Klucel (hydroxypropylcellulose) (HPC).
Where [6] appears, read: dose: 50.0 mg/kg/injection, schedule: Q04DX004 (ip), vehicle: saline with Tween-80.
Setting [7] is: dose: 100.0 mg/kg/injection, schedule: Q04DX004 (ip), vehicle: saline with Tween-80.
Setting [8] is: dose: 200.0 mg/kg/injection, schedule: Q04DX004 (ip), vehicle: saline with Tween-80.
The mark [9] stands for this setting: dose: 400.0 mg/kg/injection, schedule: Q04DX004 (ip), vehicle: saline with Tween-80.
Where [10] appears, read: dose: 37.5 mg/kg/injection, schedule: Q04DX004 (ip), vehicle: saline with Tween-80.
Setting [11] is: dose: 75.0 mg/kg/injection, schedule: Q04DX004 (ip), vehicle: saline with Tween-80.
[12] abbreviates: dose: 150.0 mg/kg/injection, schedule: Q04DX004 (ip), vehicle: saline with Tween-80.
[13] abbreviates: dose: 300.0 mg/kg/injection, schedule: Q04DX004 (ip), vehicle: saline with Tween-80.
Where [14] appears, read: dose: 12.5 mg/kg/injection, schedule: Q04DX004 (ip), vehicle: saline with Tween-80.
Where [15] appears, read: dose: 25.0 mg/kg/injection, schedule: Q04DX004 (ip), vehicle: saline with Tween-80.

The values below come from PubChem BioAssay AID292 (DTP/NCI, 2004).

Where “and” joins values, the source holds several entries; their conditions need not be identical. Equal entries are not always repeated. Inconclusive results and toxic doses are left out.

Consider `N#CC1C(=O)NC(=O)C(C#N)C1c1ccc(C2C(C#N)C(=O)NC(=O)C2C#N)cc1` (stereo unspecified), for which the T/C runs as follows: under setting [1], 100 % of control; under setting [2], 97 % of control; under setting [3], 100 % of control; under setting [4], 96 % of control; under setting [5], 100 % of control.

With `Cc1cn(C2CC(F)C(CO)O2)c(=O)[nH]c1=O` (stereo unspecified), the T/C by setting is: (dose: 7.5 mg/kg/injection, schedule: Q04DX004 (ip), vehicle: suspension in saline) 111 % of control; (dose: 150.0 mg/kg/injection, schedule: Q04DX004 (ip), vehicle: suspension in saline) 101 % of control; (dose: 300.0 mg/kg/injection, schedule: Q04DX004 (ip), vehicle: suspension in saline) 111 % of control; (dose: 600.0 mg/kg/injection, schedule: Q04DX004 (ip), vehicle: suspension in saline) 117 % of control.

For the compound `Cc1cc2c(C(C)C)c(O)c(O)c(C=NCCO)c2c(O)c1-c1c(C)cc2c(C(C)C)c(O)c(O)c(C=NCCO)c2c1O`, the T/C under setting [6] is 116 % of control; the T/C (dose: 86.4 mg/kg/injection, schedule: Q04DX004 (ip), vehicle: saline with Tween-80) is 120 % of control; the T/C under setting [7] was 121 % of control; the T/C under setting [8] is 123 % of control; the T/C (dose: 240.0 mg/kg/injection, schedule: Q04DX004 (ip), vehicle: saline with Tween-80) was 150 % of control; the T/C under setting [9] is 92 % of control and 210 % of control. In addition, the T/C (dose: 800.0 mg/kg/injection, schedule: Q04DX004 (ip), vehicle: saline with Tween-80) was 180 % of control.

For `CC1OC2CC(O)C1(O)C1=C2C(O)=C(C(N)=O)C(=N)C1=O` (stereo unspecified), the T/C was 108 % of control (dose: 1.25 mg/kg/injection, schedule: Q04DX004 (ip), vehicle: saline); 101 % of control (dose: 2.5 mg/kg/injection, schedule: Q04DX004 (ip), vehicle: saline); 100 % of control (dose: 5.0 mg/kg/injection, schedule: Q04DX004 (ip), vehicle: saline).

As for `COC(=O)C1(F)C(=O)NC(=O)NC1OC` (stereo unspecified), the T/C runs as follows: under setting [1], 100 % of control and 102 % of control; under setting [2], 106 % of control and 116 % of control; under setting [3], 104 % of control and 113 % of control; under setting [4], 109 % of control and 113 % of control; under setting [5], 102 % of control and 116 % of control.

`Cc1cc(C(F)(F)F)nc2nc3ccccc3n12`: the T/C reads like this: (dose: 37.5 mg/kg/injection, schedule: Q04DX004 (ip), vehicle: Klucel (hydroxypropylcellulose) (HPC)) 100 % of control; (dose: 75.0 mg/kg/injection, schedule: Q04DX004 (ip), vehicle: Klucel (hydroxypropylcellulose) (HPC)) 95 % of control; (dose: 150.0 mg/kg/injection, schedule: Q04DX004 (ip), vehicle: Klucel (hydroxypropylcellulose) (HPC)) 96 % of control; (dose: 300.0 mg/kg/injection, schedule: Q04DX004 (ip), vehicle: Klucel (hydroxypropylcellulose) (HPC)) 95 % of control.

With `CCN(CC)CCn1c2c(c3ccc(OC)cc31)CCN1CC3CC(OC(=O)c4cc(OC)c(OC)c(OC)c4)C(OC)C(C(=O)OC)C3CC21` (stereo unspecified), the T/C runs as follows: (dose: 25.0 mg/kg/injection, schedule: Q04DX004 (ip), vehicle: saline) 105 % of control; (dose: 50.0 mg/kg/injection, schedule: Q04DX004 (ip), vehicle: saline) 97 % of control; (dose: 100.0 mg/kg/injection, schedule: Q04DX004 (ip), vehicle: saline) 97 % of control; (dose: 200.0 mg/kg/injection, schedule: Q04DX004 (ip), vehicle: saline) 86 % of control.

For `Cc1ccc(/C=C2/N=C([Se])N(C)C2=O)cc1`, the T/C reads like this: under setting [10], 124 % of control; under setting [11], 98 % of control; under setting [12], 89 % of control.

For `CCNc1nc(NC(C)C)nc(-c2ccncc2)n1`, the T/C runs as follows: (dose: 25.0 mg/kg/injection, schedule: Q04DX004 (ip), vehicle: Klucel (hydroxypropylcellulose) (HPC)) 93 % of control; under setting [1], 95 % of control; under setting [2], 95 % of control; under setting [3], 95 % of control.

Regarding `CCn1c2ccc(N)cc2c2c3ncc4cccn4c3ccc21`, the T/C was 101 % of control under setting [10], 94 % of control under setting [11], 97 % of control under setting [12] and 89 % of control under setting [13].

Regarding `CCC(NC(N)=O)C(CC)NC(N)=O` (stereo unspecified), the T/C is 92 % of control under setting [14] and 92 % of control under setting [15].

Regarding `O=C(NNC(=S)NC1OC(CO)C(O)C(O)C1O)c1cccc(C(=O)NNC(=S)NC2OC(CO)C(O)C(O)C2O)n1` (stereo unspecified), the T/C reads like this: under setting [10], 97 % of control; (dose: 37.5 mg/kg/injection, schedule: Q04DX004 (ip), vehicle: saline) 101 % of control; under setting [11], 98 % of control; (dose: 75.0 mg/kg/injection, schedule: Q04DX004 (ip), vehicle: saline) 96 % of control; under setting [12], 98 % of control; (dose: 150.0 mg/kg/injection, schedule: Q04DX004 (ip), vehicle: saline) 101 % of control. The T/C runs as follows: under setting [13], 99 % of control; (dose: 300.0 mg/kg/injection, schedule: Q04DX004 (ip), vehicle: saline) 96 % of control; (dose: 600.0 mg/kg/injection, schedule: Q04DX004 (ip), vehicle: saline with Tween-80) 98 % of control; (dose: 600.0 mg/kg/injection, schedule: Q04DX004 (ip), vehicle: saline) 103 % of control.

Consider `O=CC(NC(=O)N(CCCl)N=O)C(O)C(O)C(O)CO` (stereo unspecified), for which the T/C is 319 % of control (dose: 1.25 mg/kg/injection, schedule: Q04DX005 (ip), vehicle: saline); 319 % of control (dose: 2.5 mg/kg/injection, schedule: Q04DX005 (ip), vehicle: saline); 319 % of control (dose: 5.0 mg/kg/injection, schedule: Q04DX005 (ip), vehicle: saline); 319 % of control (dose: 10.0 mg/kg/injection, schedule: Q04DX005 (ip), vehicle: saline).

On to `CC(=O)C1C(=O)C(=O)N(Cc2ccccc2)C1=O` (stereo unspecified), for which the T/C is 98 % of control (dose: 46.88 mg/kg/injection, schedule: Q04DX004 (ip), vehicle: Klucel (hydroxypropylcellulose) (HPC)); 95 % of control (dose: 93.75 mg/kg/injection, schedule: Q04DX004 (ip), vehicle: Klucel (hydroxypropylcellulose) (HPC)); 99 % of control (dose: 187.5 mg/kg/injection, schedule: Q04DX004 (ip), vehicle: Klucel (hydroxypropylcellulose) (HPC)); 98 % of control (dose: 375.0 mg/kg/injection, schedule: Q04DX004 (ip), vehicle: Klucel (hydroxypropylcellulose) (HPC)).

Regarding `c1ccc2c(c1)oc1cc3c(cc12)n1nnnc1c1cccn31`, the T/C is, setting by setting: (dose: 3.12 mg/kg/injection, schedule: Q04DX004 (ip), vehicle: saline with Tween-80) 90 % of control; (dose: 6.25 mg/kg/injection, schedule: Q04DX004 (ip), vehicle: saline with Tween-80) 95 % of control; under setting [14], 90 % of control; under setting [15], 87 % of control.

Regarding `CCCCCn1c(C)cc(/C=C\c2ccc3cc(C)ccc3[n+]2C)c1C`, the T/C (dose: 1.0 mg/kg/injection, schedule: Q04DX004 (ip), vehicle: saline) was 103 % of control; the T/C (dose: 2.0 mg/kg/injection, schedule: Q04DX004 (ip), vehicle: saline) was 111 % of control; the T/C (dose: 4.0 mg/kg/injection, schedule: Q04DX004 (ip), vehicle: saline) is 111 % of control; the T/C (dose: 8.0 mg/kg/injection, schedule: Q04DX004 (ip), vehicle: saline) was 114 % of control.

On to `NC(C(=O)O)C1=CCCC1` (stereo unspecified), for which the T/C by setting is: under setting [15], 102 % of control; under setting [6], 99 % of control; under setting [7], 98 % of control; under setting [8], 98 % of control; under setting [9], 87 % of control.
